Experimental data published in paper PMC11945486, “TAS1R2/TAS1R3 Single-Nucleotide Polymorphisms Affect Sweet Taste Receptor Activation by Sweeteners: The SWEET Project” (Nutrients, 2025).
No end group written: not given here.

T1: human TAS1R2-I234V/TAS1R3-WT (Homo sapiens, UniProt Q7RTX0+Q8TE23, I234V)
T1 construct: expressed in transfected cells; host or cells: HEK293T-Gα16gust44
T1 sequence (Q8TE23 20-839 I234V): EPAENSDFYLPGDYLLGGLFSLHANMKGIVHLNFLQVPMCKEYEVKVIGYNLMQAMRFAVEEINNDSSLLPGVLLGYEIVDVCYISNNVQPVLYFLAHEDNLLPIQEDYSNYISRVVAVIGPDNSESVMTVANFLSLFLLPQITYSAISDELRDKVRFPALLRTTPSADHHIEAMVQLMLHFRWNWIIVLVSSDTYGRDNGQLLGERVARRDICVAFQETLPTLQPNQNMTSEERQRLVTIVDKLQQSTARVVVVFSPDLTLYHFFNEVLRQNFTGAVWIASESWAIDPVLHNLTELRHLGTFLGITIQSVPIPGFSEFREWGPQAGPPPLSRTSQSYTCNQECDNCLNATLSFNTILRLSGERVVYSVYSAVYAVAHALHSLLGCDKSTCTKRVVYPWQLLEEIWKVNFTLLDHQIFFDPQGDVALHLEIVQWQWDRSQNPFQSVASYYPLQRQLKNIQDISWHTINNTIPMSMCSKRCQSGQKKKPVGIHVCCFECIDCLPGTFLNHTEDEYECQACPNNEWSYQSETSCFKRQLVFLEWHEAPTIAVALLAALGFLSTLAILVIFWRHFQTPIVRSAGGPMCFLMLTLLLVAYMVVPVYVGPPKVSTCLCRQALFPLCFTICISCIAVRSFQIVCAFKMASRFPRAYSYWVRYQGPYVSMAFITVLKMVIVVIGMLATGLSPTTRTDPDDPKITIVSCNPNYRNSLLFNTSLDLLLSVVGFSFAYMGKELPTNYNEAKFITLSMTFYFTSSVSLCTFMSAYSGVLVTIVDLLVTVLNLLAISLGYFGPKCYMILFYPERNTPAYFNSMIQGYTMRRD
T1 sequence (Q7RTX0 21-852): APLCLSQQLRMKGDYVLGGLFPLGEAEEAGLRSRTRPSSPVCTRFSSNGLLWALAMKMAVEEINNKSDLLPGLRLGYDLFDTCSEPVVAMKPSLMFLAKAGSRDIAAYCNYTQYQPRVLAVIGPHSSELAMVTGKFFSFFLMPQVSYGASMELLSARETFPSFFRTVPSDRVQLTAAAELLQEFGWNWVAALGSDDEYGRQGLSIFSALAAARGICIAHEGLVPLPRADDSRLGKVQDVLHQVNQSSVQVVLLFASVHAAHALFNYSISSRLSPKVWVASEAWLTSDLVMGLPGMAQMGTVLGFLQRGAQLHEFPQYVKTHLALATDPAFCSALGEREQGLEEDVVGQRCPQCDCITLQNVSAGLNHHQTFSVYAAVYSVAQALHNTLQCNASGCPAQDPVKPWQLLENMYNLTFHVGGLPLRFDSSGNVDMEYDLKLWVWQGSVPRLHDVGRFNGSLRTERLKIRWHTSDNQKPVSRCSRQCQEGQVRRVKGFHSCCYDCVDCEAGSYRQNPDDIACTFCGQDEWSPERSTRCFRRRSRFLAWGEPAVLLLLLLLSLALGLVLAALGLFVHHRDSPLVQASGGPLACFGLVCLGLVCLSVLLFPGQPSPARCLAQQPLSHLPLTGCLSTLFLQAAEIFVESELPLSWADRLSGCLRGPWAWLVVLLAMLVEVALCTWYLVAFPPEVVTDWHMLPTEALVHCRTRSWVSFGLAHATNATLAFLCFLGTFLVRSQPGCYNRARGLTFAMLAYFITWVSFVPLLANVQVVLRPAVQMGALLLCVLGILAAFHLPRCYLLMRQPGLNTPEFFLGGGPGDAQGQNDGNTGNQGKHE


Target: T1, human TAS1R2-I234V/TAS1R3-WT
Assay: Calcium mobilisation assay, TAS1R2 variant I234V with TAS1R3-WT
Type: cell-based
Conditions: for Max ΔF/F0: maximal signal amplitude
Source text: The coding sequences for TAS1R2 and TAS1R3 were commercially synthesised, and the human codon was optimised for expression in human cells. The coding sequences of human TAS1R2 and TAS1R3 were subcloned and inserted into the mammalian expression vectors pcDNA6/myc-HisA and pcDNA4/myc-HisA (Invitrogen; Thermo Fisher Scientific; Illkirch, France) between the EcoRI and NotI restriction sites, generating the plasmids pcDNA6-TAS1R2 and pcDNA4-TAS1R3, respectively. To increase protein expression in mammalian cells, an upstream start codon was used, which was a sequence called MAX, corresponding to the QBI SP163 element also described in pcDNA4-HisMax (Invitrogen; Thermo Fisher Scientific; Illkirch, France). To measure the expression level of the receptor by immunohistochemistry, we used the FLAG sequence ([…]) in the C-terminal position, which encodes the FLAG tag epitope. SNP variants of TAS1R2 and TAS1R3 were constructed based on […], respectively, using site-directed mutagenesis (Genewiz; Leipzig, Germany).
The HEK293T cells were kindly provided by Jay P. Slack (Givaudan Flavors Corporation; Cincinnati, OH, USA). HEK293T cells stably transfected with Gα16gust44 [43, 67] were seeded in poly-D-lysine-coated clear-bottom black 96-well plates (0.35 × 10^5 cells/well) in high-glucose DMEM supplemented with 2 mM GlutaMAX, 10% dialysed foetal bovine serum with penicillin/streptomycin and G418 (400 μg/mL) at 37 °C and 6.3% CO2 in a humidified atmosphere as previously reported. […] As a negative control, HEK293T cells were mock-transfected with the empty expression vector. After a further 24 h of incubation, the HEK293T cells were washed with C1 buffer (130 mM NaCl, 5 mM KCl, 10 mM HEPES pH 7.4 and 2 mM CaCl2). The 96-well plates containing the cells were then stimulated with sweet-tasting compounds. […] Different concentration ranges were tested depending on the sweet compound injected. The Ca^2+ changes were expressed as fractional changes in fluorescent light intensity: ΔF/F = (F − F0)/F0, where F was the fluorescent light intensity at each point, and F0 was the value of emitted fluorescent light prior to stimulus application. To calculate dose–response relationships, the changes in fluorescence upon stimulus application were averaged, mock-subtracted and baseline-corrected. The dose–response data obtained were adjusted using a 4-parameter logistic equation. The half-maximal effective concentrations (EC50 values) and maximal signal amplitudes were calculated using SigmaPlot software (version 15.0) (Systat Software; San Jose, CA, USA).
For in vitro calcium mobilisation assay performed on hTAS1R2-SNPs, hTAS1R3-SNPs and mTAS1R3-I60T, 6 to 7 concentrations were tested for each sweet compound, plus buffer alone. All concentration–receptor combinations were measured in duplicate, and each experiment was repeated at least 4 times (8 wells/concentration). Results were expressed for each concentration as ΔF/F mean ± SEM and represented as dose–response curves.

Row | EC50 [µM] | R1 = Variant EC50/WT EC50 | Max ΔF/F0 | Molecule
1 | 510 ± 63 | 0.7 | 0.41 ± 0.02 | CC1=CC(=O)NS(=O)(=O)O1 [Acesulfame K, acesulfame K]
2 | 94.7 ± 6.8 | 1.2 | 0.80 ± 0.02 | COc1ccc(CCC(=O)c2c(O)cc(O[C@@H]3O[C@H](CO)[C@@H](O)[C@H](O)[C@H]3O[C@@H]3O[C@@H](C)[C@H](O)[C@@H](O)[C@H]3O)cc2O)cc1O [NHDC, neohesperidin dihydrochalcone]
3 | 0.8 ± 0.08 | 1.0 | 0.66 ± 0.02 | COC(=O)[C@H](Cc1ccccc1)NC(=O)[C@H](CC(=O)O)NCCC(C)(C)C [Neotame]
4 | 20.1 ± 1.1 | 1.1 | 1.52 ± 0.03 | C=C(C)[C@@H]1CC=C(/C=N/O)CC1 [Perillartine, perillartine]
5 | 18.4 ± 0.6 | 1.1 | 1.14 ± 0.01 | C=C1C[C@@]23CC[C@H]4[C@@](C)(CCC[C@@]4(C)C(=O)O[C@@H]4O[C@H](CO)[C@@H](O)[C@H](O[C@@H]5O[C@H](CO)[C@@H](O)[C@H](O)[C@H]5O)[C@H]4O[C@@H]4O[C@H](CO)[C@@H](O)[C@H](O)[C@H]4O)[C@@H]2CC[C@]1(O[C@@H]1O[C@H](CO)[C@@H](O)[C@H](O[C@@H]2O[C@H](CO)[C@@H](O)[C@H](O)[C@H]2O)[C@H]1O[C@@H]1O[C@H](CO)[C@@H](O)[C@H](O)[C@H]1O)C3 [Rebaudioside M, rebaudioside M]
6 | 60 ± 7 | 0.7 | 0.75 ± 0.03 | OC[C@H]1O[C@H](O[C@]2(CCl)O[C@H](CCl)[C@@H](O)[C@@H]2O)[C@H](O)[C@@H](O)[C@H]1Cl [Sucralose]
7 |  | 1.1 | 1.34 ± 0.05 | brazzein (QDKCKKVYENYPVSKCQLANQCNYDCKLDKHARSGECFYDEKRNLQCICDYCEY; ends and bridges not checked; cysteine pairing not given here; UniProt P56552 1-54, looked up) [sweet-tasting protein obtained by recombinant production using the yeast Pichia pastoris]
8 |  | 1.8 | 1.25 ± 0.01 | thaumatin
9 | 13.8 ± 0.2 |  |  | thaumatin (protein, Eight disulfides, sweet-tasting plant protein, E957) ATFEIVNRCSYTVWAAASKGDAALDAGGRQLNSGESWTINVEPGTKGGKIWARTDCYFDDSGSGICKTGDCGGLLRCKRFGRPPTTLAEFSLNQYGKDYIDISNIKGFNVPMDFSPTTRGCRGVRCAADIVGQCPAKLKAPGGGCNDACTVFQTSEYCCTTGKCGPTEYSRFFKRLCPDAFSYVLDKPTTVTCPGSSNYRVTFCPTA

Row | Molecule | EC50 [µM] | R1 = Variant EC50/WT EC50 | Max ΔF/F0
10 | O=S(=O)(O)NC1CCCCC1 [Cyclamate, cyclamate] | 2250 ± 42 |  | 
11 | C[C@H](CC[C@@H](O[C@@H]1O[C@H](CO[C@@H]2O[C@H](CO)[C@@H](O)[C@H](O)[C@H]2O)[C@@H](O)[C@H](O)[C@H]1O[C@@H]1O[C@H](CO)[C@@H](O)[C@H](O)[C@H]1O)C(C)(C)O)[C@H]1CC[C@@]2(C)[C@@H]3CC=C4[C@@H](CC[C@H](O[C@@H]5O[C@H](CO[C@@H]6O[C@H](CO)[C@@H](O)[C@H](O)[C@H]6O)[C@@H](O)[C@H](O)[C@H]5O)C4(C)C)[C@]3(C)[C@H](O)C[C@]12C [Mogroside V, mogroside V] | 19.4 ± 1.6 | 1.1 | 1.28 ± 0.04
